From ChEMBL document CHEMBL1201862, “PubChem BioAssay data set” (2004)
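Briefly, cells in 96-well plates were exposed to five compound concentrations for 48 h, and endpoints were estimated by linear interpolation. Here, GI50 denotes the concentration required for 50% inhibition of growth.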 Active and inactive are the calls of the source. Cut-off read from the data, not from the text of the source: active = GI50 up to about 1.1 µM and inactive = higher. Square brackets hold non-standard residues; d marks the D form. Peptide text beside a SMILES is read from it. * marks the point of attachment. Tyr(3-Br) = N[C@@H](Cc1ccc(O)c(Br)c1)C(=O)O; Boc = CC(C)(C)OC(=O)*

Tests used:
Assay in all cases: NCI-60 cell line screen, 48 h
BT-549 = tested on: BT-549
DU-145 = tested on: DU-145
SK-MEL-5 = tested on: SK-MEL-5
NCI/ADR-RES = tested on: NCI/ADR-RES
SR = tested on: SR
SF-268 = tested on: SF-268
OVCAR-8 = tested on: OVCAR-8
EKVX = tested on: EKVX
NCI-H226 = tested on: NCI-H226
OVCAR-3 = tested on: OVCAR-3
UO-31 = tested on: UO-31
LOX IMVI = tested on: LOX IMVI
SN12C = tested on: SN12C
COLO 205 = tested on: COLO 205
Hs-578T = tested on: Hs-578T
HOP-62 = tested on: HOP-62
SF-539 = tested on: SF-539
TK-10 = tested on: TK-10
SNB-75 = tested on: SNB-75
RXF 393 = tested on: RXF 393

| Structure (SMILES) | GI50 (BT-549) | GI50 (DU-145) | GI50 (SK-MEL-5) | GI50 (NCI/ADR-RES) | GI50 (SR) | GI50 (SF-268) | GI50 (OVCAR-8) | GI50 (EKVX) | GI50 (NCI-H226) | GI50 (OVCAR-3) | GI50 (UO-31) | GI50 (LOX IMVI) | GI50 (SN12C) | GI50 (COLO 205) | GI50 (Hs-578T) | GI50 (HOP-62) | GI50 (SF-539) | GI50 (TK-10) | GI50 (SNB-75) | GI50 (RXF 393) |
| --- | --- | --- | --- | --- | --- | --- | --- | --- | --- | --- | --- | --- | --- | --- | --- | --- | --- | --- | --- | --- |
| COc1ccccc1[S+]([O-])Nc1ccccc1 (stereo not given) | 17.4 µM (inactive) | > 100 µM (inactive) | 25.5 µM (inactive) | 91.4 µM (inactive) | 21.6 µM (inactive) | 16.7 µM (inactive) | > 100 µM (inactive) | > 100 µM (inactive) | > 100 µM (inactive) | > 100 µM (inactive) | 33.6 µM (inactive) | 71.9 µM (inactive) | > 100 µM (inactive) | > 100 µM (inactive) | 76 µM (inactive) | > 100 µM (inactive) | 25.3 µM (inactive) | > 100 µM (inactive) | – | – |
| Cn1c(=O)c2c(ncn2CCNC(CO)C(O)c2ccc([N+](=O)[O-])cc2)n(C)c1=O (stereo not given) | > 100 µM (inactive) | – | > 100 µM (inactive) | > 100 µM (inactive) | > 100 µM (inactive) | > 100 µM (inactive) | > 100 µM (inactive) | > 100 µM (inactive) | > 100 µM (inactive) | > 100 µM (inactive) | > 100 µM (inactive) | > 100 µM (inactive) | > 100 µM (inactive) | > 100 µM (inactive) | > 10 µM (inactive) | > 100 µM (inactive) | > 100 µM (inactive) | > 100 µM (inactive) | – | – |
| CC(=O)CCn1c(=S)sc2ccccc21 | > 100 µM (inactive) | > 100 µM (inactive) | 56.8 µM (inactive) | > 100 µM (inactive) | – | > 100 µM (inactive) | > 100 µM (inactive) | > 100 µM (inactive) | > 100 µM (inactive) | > 100 µM (inactive) | 41.3 µM (inactive) | > 100 µM (inactive) | > 100 µM (inactive) | > 100 µM (inactive) | > 100 µM (inactive) | > 100 µM (inactive) | > 100 µM (inactive) | > 100 µM (inactive) | > 100 µM (inactive) | > 100 µM (inactive) |
| O=C(O)c1ccc(Nc2nc3ccccc3nc2C(=O)O)cc1 | > 100 µM (inactive) | > 100 µM (inactive) | > 100 µM (inactive) | > 100 µM (inactive) | > 100 µM (inactive) | > 100 µM (inactive) | > 100 µM (inactive) | > 100 µM (inactive) | – | > 100 µM (inactive) | > 100 µM (inactive) | – | > 100 µM (inactive) | > 100 µM (inactive) | > 100 µM (inactive) | > 100 µM (inactive) | > 100 µM (inactive) | > 100 µM (inactive) | > 100 µM (inactive) | – |
| Cn1/c(=N\S(=O)(=O)c2ccccc2)n(S(=O)(=O)c2ccccc2)c2ccccc21 | > 100 µM (inactive) | 72.8 µM (inactive) | 35.7 µM (inactive) | 38.6 µM (inactive) | – | 54.1 µM (inactive) | 56.1 µM (inactive) | 63.5 µM (inactive) | 50.2 µM (inactive) | 36.2 µM (inactive) | 34.7 µM (inactive) | > 100 µM (inactive) | 87.3 µM (inactive) | 32.9 µM (inactive) | 41.8 µM (inactive) | 38.8 µM (inactive) | – | > 100 µM (inactive) | 54.7 µM (inactive) | 95.5 µM (inactive) |
| CCc1n[nH]c(=O)n1NC(=O)CCCC(=O)O | > 100 µM (inactive) | – | > 100 µM (inactive) | > 100 µM (inactive) | > 100 µM (inactive) | > 100 µM (inactive) | > 100 µM (inactive) | > 100 µM (inactive) | > 100 µM (inactive) | > 100 µM (inactive) | > 100 µM (inactive) | > 100 µM (inactive) | > 100 µM (inactive) | > 100 µM (inactive) | > 100 µM (inactive) | > 100 µM (inactive) | > 100 µM (inactive) | > 100 µM (inactive) | – | > 100 µM (inactive) |
| Cc1cc2c(cc1Cl)Sc1nnc(C)n1S2(=O)=O | 14.1 µM (inactive) | 22 µM (inactive) | 13.6 µM (inactive) | 27 µM (inactive) | – | 14.9 µM (inactive) | 17.5 µM (inactive) | 16 µM (inactive) | 30.2 µM (inactive) | 12.6 µM (inactive) | 10.6 µM (inactive) | 10.1 µM (inactive) | 14.8 µM (inactive) | 15.2 µM (inactive) | 28.9 µM (inactive) | 20 µM (inactive) | 17.9 µM (inactive) | 15.6 µM (inactive) | 13.3 µM (inactive) | 17.6 µM (inactive) |
| Nc1nc(Cl)c(N)c(NCC2(CO)CC(CCCc3ccccc3)C2)n1 (stereo not given) | 15.5 µM (inactive) | 68.7 µM (inactive) | – | – | 23.6 µM (inactive) | 23 µM (inactive) | – | 0.223 µM (active) | 2.91 µM (inactive) | 19.1 µM (inactive) | 12.9 µM (inactive) | 16.7 µM (inactive) | 62.7 µM (inactive) | 16 µM (inactive) | 36.7 µM (inactive) | 59.2 µM (inactive) | 30 µM (inactive) | 56.2 µM (inactive) | 20.4 µM (inactive) | – |
| COc1ccc2nc3cccc([N+](=O)[O-])c3c(NCCN(C)C)c2c1 | 0.0369 µM (active) | 0.0223 µM (active) | 0.102 µM (active) | 0.138 µM (active) | – | 0.145 µM (active) | 0.0638 µM (active) | 0.186 µM (active) | 0.207 µM (active) | 0.127 µM (active) | 0.176 µM (active) | 0.0325 µM (active) | 0.11 µM (active) | 0.0284 µM (active) | 0.242 µM (active) | 0.119 µM (active) | 0.147 µM (active) | 0.263 µM (active) | 0.159 µM (active) | 0.0851 µM (active) |
| CCOc1ccc(/N=N/c2ccc(-c3ccc(/N=N/c4c(O)ccc5cc(S(=O)(=O)O)cc(S(=O)(=O)O)c45)cc3)cc2)cc1 | > 100 µM (inactive) | – | > 100 µM (inactive) | > 100 µM (inactive) | 66.2 µM (inactive) | > 100 µM (inactive) | > 100 µM (inactive) | > 100 µM (inactive) | > 100 µM (inactive) | > 100 µM (inactive) | > 100 µM (inactive) | – | – | > 100 µM (inactive) | > 100 µM (inactive) | > 100 µM (inactive) | > 100 µM (inactive) | > 100 µM (inactive) | – | > 100 µM (inactive) |
| Cc1ccc(Oc2cc(C)ccc2P(=O)(O)O)cc1 | > 100 µM (inactive) | > 100 µM (inactive) | > 100 µM (inactive) | – | – | > 100 µM (inactive) | > 100 µM (inactive) | > 100 µM (inactive) | > 100 µM (inactive) | > 100 µM (inactive) | > 100 µM (inactive) | > 100 µM (inactive) | > 100 µM (inactive) | > 100 µM (inactive) | > 100 µM (inactive) | > 100 µM (inactive) | > 100 µM (inactive) | > 100 µM (inactive) | > 100 µM (inactive) | > 100 µM (inactive) |
| [N-]=[N+]=NCC1OCC(O)C(OCc2ccccc2)C1OCc1ccccc1 (stereo not given) | 28.9 µM (inactive) | 86.7 µM (inactive) | 95.9 µM (inactive) | > 100 µM (inactive) | 57.1 µM (inactive) | > 100 µM (inactive) | > 100 µM (inactive) | 48.4 µM (inactive) | 55 µM (inactive) | > 100 µM (inactive) | 65.2 µM (inactive) | > 100 µM (inactive) | > 100 µM (inactive) | > 100 µM (inactive) | > 100 µM (inactive) | > 100 µM (inactive) | > 100 µM (inactive) | > 100 µM (inactive) | 20.5 µM (inactive) | – |
| CC1(C)CC(=O)C(=CNC(N)=S)C(=O)C1 | > 100 µM (inactive) | > 100 µM (inactive) | > 100 µM (inactive) | > 100 µM (inactive) | – | > 100 µM (inactive) | > 100 µM (inactive) | > 100 µM (inactive) | > 100 µM (inactive) | > 100 µM (inactive) | > 100 µM (inactive) | > 100 µM (inactive) | > 100 µM (inactive) | > 100 µM (inactive) | > 100 µM (inactive) | > 100 µM (inactive) | > 100 µM (inactive) | > 100 µM (inactive) | > 100 µM (inactive) | > 100 µM (inactive) |
| Nc1nc2c(c(-c3cccc(Cl)c3)n1)COC/C2=C\c1cccc(Cl)c1 | > 100 µM (inactive) | 80.2 µM (inactive) | > 100 µM (inactive) | > 100 µM (inactive) | – | > 100 µM (inactive) | > 100 µM (inactive) | > 100 µM (inactive) | > 100 µM (inactive) | > 100 µM (inactive) | 25 µM (inactive) | > 100 µM (inactive) | > 100 µM (inactive) | > 100 µM (inactive) | 45.6 µM (inactive) | > 100 µM (inactive) | > 100 µM (inactive) | 41.8 µM (inactive) | 22.9 µM (inactive) | > 100 µM (inactive) |
| COC(=O)[C@H](Cc1ccc(O)c(Br)c1)NC(=O)[C@H](Cc1ccc(O)cc1)NC(=O)OC(C)(C)C (Boc-Tyr-[Tyr(3-Br)]-OMe) | 35.2 µM (inactive) | 61.9 µM (inactive) | – | > 100 µM (inactive) | 44.6 µM (inactive) | 48.3 µM (inactive) | 19.9 µM (inactive) | > 100 µM (inactive) | > 100 µM (inactive) | 20.7 µM (inactive) | 29 µM (inactive) | 22.5 µM (inactive) | 78.5 µM (inactive) | 39.9 µM (inactive) | > 100 µM (inactive) | > 100 µM (inactive) | 28.7 µM (inactive) | > 100 µM (inactive) | 92 µM (inactive) | – |
